Measurements reported in patent US20260049076A1, “Tertiary Amine Substituted Bicyclic Compounds Useful as T Cell Activators” (BRISTOL-MYERS SQUIBB COMPANY, priority 2022, published 2026).
pEC50, pIC50: −log10 of the molar value.

Experiments:
DGKzeta = DGKzeta (Homo sapiens, UniProt Q13574); test: Translocation DGKzeta; type: cell-based
human DGKα = biological target: T1, human DGKα (Homo sapiens, UniProt P23743); test: In vitro DGK inhibition assay, DGKα liposome (LIPGLO) assay; type: biochemical; settings: read-out: Enzyme Inhibition DGKalpha IC50
T1 construct: TVMV protease cleavage site (C); Hexa-His (C); made in house; host or cells: Sf9 insect cells (baculovirus)
Method in brief: (§1)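 Baculovirus/Sf9-expressed His-tagged human DGKα or DGKζ (5 nM) on extruded liposomes (2 mM PS, 0.25 mM DAG, 2.75 mM PC) in MOPS pH 7.5 with MgCl2, CaCl2 and 150 μM ATP, 1 h.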

human DGKζ = biological target: T2, human DGKζ (Homo sapiens, UniProt Q13574); test: In vitro DGK inhibition assay, DGKζ liposome (LIPGLO) assay; type: biochemical; settings: read-out: Enzyme Inhibition DGKzeta IC50
T2 construct: TVMV protease cleavage site (C); Hexa-His (C); made in house; host or cells: Sf9 insect cells (baculovirus)
Method in brief: as §1

DGKalpha = DGKalpha (Homo sapiens, UniProt P23743); test: Translocation DGKalpha; type: cell-based
DGKalpha, sequence (P23743 whole entry): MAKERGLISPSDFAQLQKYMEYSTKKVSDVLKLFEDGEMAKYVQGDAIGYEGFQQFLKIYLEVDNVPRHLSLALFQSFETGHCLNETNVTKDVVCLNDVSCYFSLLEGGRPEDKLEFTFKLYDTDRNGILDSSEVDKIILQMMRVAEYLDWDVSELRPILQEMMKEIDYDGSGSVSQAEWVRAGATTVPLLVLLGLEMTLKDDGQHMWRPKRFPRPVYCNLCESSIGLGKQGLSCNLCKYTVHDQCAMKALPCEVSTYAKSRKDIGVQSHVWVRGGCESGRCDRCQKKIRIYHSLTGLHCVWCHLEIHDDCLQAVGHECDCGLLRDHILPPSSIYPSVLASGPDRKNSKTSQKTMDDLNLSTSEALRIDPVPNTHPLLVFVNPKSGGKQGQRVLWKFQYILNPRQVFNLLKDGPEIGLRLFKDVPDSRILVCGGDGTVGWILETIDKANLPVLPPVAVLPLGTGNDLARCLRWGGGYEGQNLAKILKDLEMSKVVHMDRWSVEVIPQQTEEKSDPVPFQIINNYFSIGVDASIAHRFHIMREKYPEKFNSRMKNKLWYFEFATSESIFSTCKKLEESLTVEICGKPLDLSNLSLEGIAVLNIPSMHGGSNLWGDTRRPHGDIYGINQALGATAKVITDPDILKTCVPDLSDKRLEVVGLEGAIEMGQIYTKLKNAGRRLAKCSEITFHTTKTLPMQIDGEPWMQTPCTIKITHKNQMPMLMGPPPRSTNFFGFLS

T2 sequence (Q13574 with tags, fused parts or gaps isoform Q13574-4): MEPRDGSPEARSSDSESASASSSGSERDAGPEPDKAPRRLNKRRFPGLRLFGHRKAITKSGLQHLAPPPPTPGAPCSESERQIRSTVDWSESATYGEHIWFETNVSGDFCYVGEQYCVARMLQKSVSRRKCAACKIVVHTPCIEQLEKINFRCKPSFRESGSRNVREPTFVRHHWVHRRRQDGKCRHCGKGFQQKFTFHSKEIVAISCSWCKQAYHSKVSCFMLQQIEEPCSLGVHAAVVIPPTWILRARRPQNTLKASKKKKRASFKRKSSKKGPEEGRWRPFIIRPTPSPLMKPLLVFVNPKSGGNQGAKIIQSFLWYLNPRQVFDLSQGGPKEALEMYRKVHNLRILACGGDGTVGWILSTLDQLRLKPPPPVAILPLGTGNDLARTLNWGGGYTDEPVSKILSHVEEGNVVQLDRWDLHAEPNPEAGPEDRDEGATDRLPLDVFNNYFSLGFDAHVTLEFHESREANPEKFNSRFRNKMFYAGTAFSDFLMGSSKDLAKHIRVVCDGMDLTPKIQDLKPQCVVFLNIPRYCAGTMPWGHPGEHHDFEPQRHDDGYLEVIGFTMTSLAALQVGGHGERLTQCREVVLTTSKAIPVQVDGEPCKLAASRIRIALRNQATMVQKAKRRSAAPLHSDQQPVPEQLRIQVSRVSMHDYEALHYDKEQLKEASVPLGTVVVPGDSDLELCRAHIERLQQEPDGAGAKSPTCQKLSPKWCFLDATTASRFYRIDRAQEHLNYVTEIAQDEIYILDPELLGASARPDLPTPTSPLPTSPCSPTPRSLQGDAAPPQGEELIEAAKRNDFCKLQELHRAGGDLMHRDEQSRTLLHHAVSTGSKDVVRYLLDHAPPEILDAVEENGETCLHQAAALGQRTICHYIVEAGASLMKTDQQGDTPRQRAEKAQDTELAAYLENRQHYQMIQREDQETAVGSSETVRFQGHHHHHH
T1 sequence (P23743 with tags, fused parts or gaps): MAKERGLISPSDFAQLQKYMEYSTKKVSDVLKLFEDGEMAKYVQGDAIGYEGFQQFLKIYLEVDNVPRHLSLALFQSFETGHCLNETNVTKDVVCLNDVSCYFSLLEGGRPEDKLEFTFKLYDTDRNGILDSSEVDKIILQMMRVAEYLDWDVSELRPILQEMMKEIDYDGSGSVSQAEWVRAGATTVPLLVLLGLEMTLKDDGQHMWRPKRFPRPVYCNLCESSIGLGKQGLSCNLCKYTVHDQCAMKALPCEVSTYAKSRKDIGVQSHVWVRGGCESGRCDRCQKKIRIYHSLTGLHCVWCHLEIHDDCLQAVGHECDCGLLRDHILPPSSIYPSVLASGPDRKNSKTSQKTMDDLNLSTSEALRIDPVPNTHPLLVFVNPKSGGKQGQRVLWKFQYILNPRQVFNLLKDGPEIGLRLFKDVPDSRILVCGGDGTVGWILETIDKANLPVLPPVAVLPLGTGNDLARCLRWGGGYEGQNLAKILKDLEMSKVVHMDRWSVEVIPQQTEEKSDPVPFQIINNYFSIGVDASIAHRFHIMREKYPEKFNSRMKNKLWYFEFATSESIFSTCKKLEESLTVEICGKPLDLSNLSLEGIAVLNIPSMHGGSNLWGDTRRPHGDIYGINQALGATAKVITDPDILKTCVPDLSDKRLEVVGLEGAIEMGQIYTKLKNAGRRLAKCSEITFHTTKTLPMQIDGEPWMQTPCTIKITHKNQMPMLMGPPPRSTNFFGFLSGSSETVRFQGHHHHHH
DGKzeta, sequence (Q13574 whole entry): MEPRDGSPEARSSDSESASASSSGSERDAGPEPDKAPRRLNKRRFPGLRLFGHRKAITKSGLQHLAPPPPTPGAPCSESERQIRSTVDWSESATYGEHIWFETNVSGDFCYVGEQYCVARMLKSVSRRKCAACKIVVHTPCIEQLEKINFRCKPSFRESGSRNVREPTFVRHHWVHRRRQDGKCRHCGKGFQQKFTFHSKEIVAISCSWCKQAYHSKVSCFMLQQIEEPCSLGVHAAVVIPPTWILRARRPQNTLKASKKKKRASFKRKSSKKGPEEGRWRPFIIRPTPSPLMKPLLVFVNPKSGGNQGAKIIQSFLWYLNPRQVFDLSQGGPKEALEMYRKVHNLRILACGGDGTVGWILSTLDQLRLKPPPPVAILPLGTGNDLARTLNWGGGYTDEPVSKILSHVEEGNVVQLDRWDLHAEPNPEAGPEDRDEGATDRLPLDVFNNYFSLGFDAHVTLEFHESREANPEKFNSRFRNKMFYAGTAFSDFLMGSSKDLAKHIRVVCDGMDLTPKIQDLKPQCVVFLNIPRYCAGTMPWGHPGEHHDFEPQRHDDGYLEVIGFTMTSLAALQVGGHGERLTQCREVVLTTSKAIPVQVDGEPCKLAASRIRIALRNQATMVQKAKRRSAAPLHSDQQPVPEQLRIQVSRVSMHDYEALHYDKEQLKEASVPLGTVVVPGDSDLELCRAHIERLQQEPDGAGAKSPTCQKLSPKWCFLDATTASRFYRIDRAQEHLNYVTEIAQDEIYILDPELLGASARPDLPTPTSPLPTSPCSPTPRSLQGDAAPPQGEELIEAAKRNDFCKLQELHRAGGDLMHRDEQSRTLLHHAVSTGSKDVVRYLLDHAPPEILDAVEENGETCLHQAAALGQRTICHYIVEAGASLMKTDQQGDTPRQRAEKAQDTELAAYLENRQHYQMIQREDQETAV

SMILES | pEC50 (DGKzeta) | pIC50 (human DGKα) | pIC50 (human DGKζ) | pEC50 (DGKalpha)
Cn1c(=O)cc(N(CC2CC2)c2ccc(C3CC3)c(-c3ccccc3)c2)c2nc(C#N)ccc21 [Example 122, 8-((6-cyclopropyl-[1,1′-biphenyl]-3-yl)(cyclopropylmethyl)amino)-5-methyl-6-oxo-5,6-dihydro-1,5-naphthyridine-2-carbonitrile] | 6.77 | 4.72 | 4.66 | < 5.52
Cn1c(=O)cc(N(CC2CC2)c2ccc(C3CC3)nc2)c2nc(C#N)ccc21 [Example 114, 8-((cyclopropylmethyl)(6-cyclopropylpyridin-3-yl)amino)-5-methyl-6-oxo-5,6-dihydro-1,5-naphthyridine-2-carbonitrile] | 6.89 | 5.10 | 5.85 | < 5.52
Cn1c(=O)cc(N(CC2CC2)c2ccc(OC(F)F)cn2)c2nc(C#N)ccc21 [Example 123] | 6.19 | 4.62 | 5.92 | < 5.52
Cn1c(=O)cc(N(CC2CC2)c2ccc3c(c2)OCCO3)c2nc(C#N)ccc21 [Example 120, 8-((cyclopropylmethyl)(2,3-dihydrobenzo[b][1,4]dioxin-6-yl)amino)-5-methyl-6-oxo-5,6-dihydro-1,5-naphthyridine-2-carbonitrile] | 6.48 | 4.89 | 5.16 | 6.04
CN(C)c1ccc(N(CC2CC2)c2cc(=O)n(C)c3ccc(C#N)nc23)cc1 [Example 116, 8-((cyclopropylmethyl)(4-(dimethylamino)phenyl)amino)-5-methyl-6-oxo-5,6-dihydro-1,5-naphthyridine-2-carbonitrile] | 6.96 | 5.06 | 5.62 | < 5.52
Cn1c(=O)cc(N(CC2CC2)c2ccc(C3CC3)c(-c3ccc(C4CC4)cc3)c2)c2nc(C#N)ccc21 [Example 125, 8-((cyclopropylmethyl)(4′,6-dicyclopropyl-[1,1′-biphenyl]-3-yl)amino)-5-methyl-6-oxo-5,6-dihydro-1,5-naphthyridine-2-carbonitrile] | 7.04 | 4.44 | 4.49 | < 5.52
Cc1ccc(N(CC2CC2)c2cc(=O)n(C)c3ccc(C#N)nc23)cc1 [Example 62, 8-((cyclopropylmethyl)(p-tolyl)amino)-5-methyl-6-oxo-5,6-dihydro-1,5-naphthyridine-2-carbonitrile] | 6.27 | 5.42 | 5.54 | 6.12
Cc1cc(C2CC2)ccc1N(CC1CC1)c1cc(=O)n(C)c2ccc(C#N)nc12 [Example 113, 8-((4-cyclopropyl-2-methylphenyl) (cyclopropylmethyl)amino)-5-methyl-6-oxo-5,6-dihydro-1,5-naphthyridine-2-carbonitrile] | 6.60 | 5.32 | 4.54 | < 5.52
Cn1c(=O)cc(N(CC2CC2)c2ccc(OC(F)F)nc2)c2nc(C#N)ccc21 [Example 112, 8-((cyclopropylmethyl)(6-(difluoromethoxy)pyridin-3-yl)amino)-5-methyl-6-oxo-5,6-dihydro-1,5-naphthyridine-2-carbonitrile] | 7.04 | 5.33 | 5.96 | < 5.52
Cn1c(=O)cc(N(CC2CC2)c2ccc(OCC(F)(F)F)cc2)c2nc(C#N)ccc21 [Example 37, 8-((cyclopropylmethyl)(4-(2,2,2-trifluoroethoxy)phenyl)amino)-5-methyl-6-oxo-5,6-dihydro-1,5-naphthyridine-2-carbonitrile] | 5.30 | 5.96 | 6.46 | 5.00
Cn1c(=O)cc(N(CC2CC2)c2ccc(Br)cc2)c2nc(C#N)ccc21 [Example 18, 8-[(4-bromophenyl)(cyclopropylmethyl)amino]-5-methyl-6-oxo-5,6-dihydro-1,5-naphthyridine-2-carbonitrile] | 5.30 | 6.59 | 6.64 | 5.57
Cc1cc(N(CC2CC2)c2cc(=O)n(C)c3ccc(C#N)nc23)ccc1OC(F)F [Example 117, 8-((cyclopropylmethyl)(4-(difluoromethoxy)-3-methylphenyl)amino)-5-methyl-6-oxo-5,6-dihydro-1,5-naphthyridine-2-carbonitrile] | 6.80 | 5.06 | 5.33 | < 5.52
Cn1c(=O)cc(N(CC2CC2)c2ccc(C3CC3)c(-c3cccc(F)c3)c2)c2nc(C#N)ccc21 [Example 126, 8-((6-cyclopropyl-3′-fluoro-[, 1′-biphenyl]-3-yl) (cyclopropylmethyl)amino)-5-methyl-6-oxo-5,6-dihydro-1,5-naphthyridine-2-carbonitrile] | 7.07 | < 4.42 | 4.77 | < 5.52
Cn1c(=O)cc(N(CC2CC2)c2ccc3occc3c2)c2nc(C#N)ccc21 [Example 65, 8-(benzofuran-5-yl (cyclopropylmethyl)amino)-5-methyl-6-oxo-5,6-dihydro-1,5-naphthyridine-2-carbonitrile] | 6.24 | 5.72 | 5.57 | 5.96
Cn1c(=O)cc(N(CC2CC2)c2ccc(C3CC3)c(-c3ccc(N4CCOCC4)cc3)c2)c2nc(C#N)ccc21 [Example 124, 8-((6-cyclopropyl-4′-morpholino-[1,1′-biphenyl]-3-yl)(cyclopropylmethyl)amino)-5-methyl-6-oxo-5,6-dihydro-1,5-naphthyridine-2-carbonitrile] | 6.74 | 4.47 | < 4.42 | 5.60

Other lines, results leading:

pEC50 (DGKzeta) | pIC50 (human DGKα) | pIC50 (human DGKζ) | pEC50 (DGKalpha) | SMILES
6.70 | < 4.42 | 5.44 | < 5.52 | Cc1cc(N(CC2CC2)c2cc(=O)n(C)c3ccc(C#N)nc23)ccc1C1CC1 [Example 132]
6.89 | < 4.42 | < 4.42 | < 5.52 | Cn1c(=O)cc(N(CC2CC2)c2ccc(C3CC3)c(-c3ccc(Cl)cc3)c2)c2nc(C#N)ccc21 [Example 128, 8-((4′-chloro-6-cyclopropyl-[1,1′-biphenyl]-3-yl)(cyclopropylmethyl)amino)-5-methyl-6-oxo-5,6-dihydro-1,5-naphthyridine-2-carbonitrile]
7.00 | < 4.42 | 4.74 | < 5.52 | Cn1c(=O)cc(N(CC2CC2)c2ccc(C3CC3)c(-c3ccc(F)cc3)c2)c2nc(C#N)ccc21 [Example 127, 8-((6-cyclopropyl-4′-fluoro-[1,1′-biphenyl]-3-yl)(cyclopropylmethyl)amino)-5-methyl-6-oxo-5,6-dihydro-1,5-naphthyridine-2-carbonitrile]
6.24 | < 4.42 | 5.36 | < 5.52 | CC(=O)N(C)c1ccc(N(CC2CC2)c2cc(=O)n(C)c3ccc(C#N)nc23)cc1 [Example 133]
6.89 | < 4.42 | < 4.42 | < 5.82 | COc1cccc(-c2cc(N(CC3CC3)c3cc(=O)n(C)c4ccc(C#N)nc34)ccc2C2CC2)c1 [Example 129, 8-((6-cyclopropyl-3′-methoxy-[1,1′-biphenyl]-3-yl)(cyclopropylmethyl)amino)-5-methyl-6-oxo-5,6-dihydro-1,5-naphthyridine-2-carbonitrile]
6.74 | < 4.42 | 4.47 | < 5.52 | Cn1c(=O)cc(N(CC2CC2)c2ccc(C3CC3)c(-c3ccc(OCC4CC4)cc3)c2)c2nc(C#N)ccc21 [Example 131, 8-((6-cyclopropyl-4′-(cyclopropylmethoxy)-[1,1′-biphenyl]-3-yl) (cyclopropylmethyl)amino)-5-methyl-6-oxo-5,6-dihydro-1,5-naphthyridine-2-carbonitrile]
6.80 | < 4.42 | < 4.42 | < 5.52 | Cn1c(=O)cc(N(CC2CC2)c2ccc(C3CC3)c(-c3ccc(C(N)=O)cc3)c2)c2nc(C#N)ccc21 [Example 130, 5′-((6-cyano-1-methyl-2-oxo-1,2-dihydro-1,5-naphthyridin-4-yl)(cyclopropylmethyl)amino)-2′-cyclopropyl-[1,1′-biphenyl]-4-carboxamide]
